Measurements: ChEMBL document CHEMBL1201862, “PubChem BioAssay data set” (2004)
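Compound exposure: 48 hours, 5 concentrations, 96-well plates. Here, GI50 denotes the concentration required for 50% inhibition of growth.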 Activity calls are given as the source filed them. Rule as the data show it: active = GI50 up to about 1.1 µM and inactive = higher.

What was measured:
Assay in all cases: inhibition of tumour cell growth, NCI panel, 48 h
[1] = tested on: KM12
[2] = tested on: SNB-19
[3] = tested on: HL-60
[4] = tested on: OVCAR-3
[5] = tested on: SK-MEL-28
[6] = tested on: SNB-75
[7] = tested on: HOP-18
[8] = tested on: HOP-92
[9] = tested on: HCT-116
[10] = tested on: OVCAR-8
[11] = tested on: DMS-114
[12] = tested on: SF-539
[13] = tested on: SF-268
[14] = tested on: HT-29
[15] = tested on: COLO 205
[16] = tested on: SK-MEL-2
[17] = tested on: NCI-H23
[18] = tested on: SNB-78
[19] = tested on: HCC 2998
[20] = tested on: LOX IMVI
[21] = tested on: M19-MEL
[22] = tested on: UO-31
[23] = tested on: SW-620
[24] = tested on: Malme-3M
[25] = tested on: NCI-H226
[26] = tested on: A498
[27] = tested on: MOLT-4
[28] = tested on: A549
[29] = tested on: CAKI-1
[30] = tested on: HOP-62
[31] = tested on: ACHN
[32] = tested on: HCT-15
[33] = tested on: 786-0
[34] = tested on: UACC-62
[35] = tested on: IGROV-1
[36] = tested on: DLD-1
[37] = tested on: TK-10
[38] = tested on: OVCAR-5
[39] = tested on: CCRF-CEM
[40] = tested on: RPMI-8226
[41] = tested on: SN12C
[42] = tested on: SK-OV-3
[43] = tested on: RXF 393
[44] = tested on: DMS-273
[45] = tested on: U-251
[46] = tested on: SK-MEL-5
[47] = tested on: NCI-H460
[48] = tested on: OVCAR-4
[49] = tested on: EKVX
[50] = tested on: RXF 631
[51] = tested on: UACC-257
[52] = tested on: K562
[53] = tested on: SF-295
[54] = tested on: M14
[55] = tested on: KM-20L2
[56] = tested on: NCI-H522
[57] = tested on: SR
[58] = tested on: XF498
[59] = tested on: LXFL 529

## O=C(C#Cc1cnc(O)nc1O)c1ccccc1
[1]
  GI50: 15.2 µM (inactive)
[2]
  GI50: 17.3 µM (inactive)
[3]
  GI50: 3.3 µM (inactive)
[4]
  GI50: 2.09 µM (inactive)
[5]
  GI50: 10.9 µM (inactive)
[6]
  GI50: 18.2 µM (inactive)
[7]
  GI50: 15.7 µM (inactive)
[8]
  GI50: 13.2 µM (inactive)
[9]
  GI50: 7 µM (inactive)
[10]
  GI50: 10.5 µM (inactive)
[11]
  GI50: 15.1 µM (inactive)
[12]
  GI50: 4.04 µM (inactive)
[13]
  GI50: 13.6 µM (inactive)
[14]
  GI50: 21.8 µM (inactive)
[15]
  GI50: 7.23 µM (inactive)
[16]
  GI50: 12.1 µM (inactive)
[17]
  GI50: 13.7 µM (inactive)
[18]
  GI50: 10.4 µM (inactive)
[19]
  GI50: 18.3 µM (inactive)
[20]
  GI50: 4.42 µM (inactive)
[21]
  GI50: 9.48 µM (inactive)
[22]
  GI50: 17.4 µM (inactive)
[23]
  GI50: 6.76 µM (inactive)
[24]
  GI50: 3.34 µM (inactive)
[25]
  GI50: 24.8 µM (inactive)
[26]
  GI50: 15.5 µM (inactive)
[27]
  GI50: 2.48 µM (inactive)
[28]
  GI50: 24.7 µM (inactive)
[29]
  GI50: 18.2 µM (inactive)
[30]
  GI50: 18.5 µM (inactive)
[31]
  GI50: 14.5 µM (inactive)
[32]
  GI50: 12.3 µM
[33]
  GI50: 12.2 µM (inactive)
[34]
  GI50: 7.28 µM (inactive)
[35]
  GI50: 17.9 µM (inactive)
[36]
  GI50: 11.3 µM (inactive)
[37]
  GI50: 13.8 µM (inactive)
[38]
  GI50: 18.9 µM (inactive)
[39]
  GI50: 1.97 µM (inactive)
[40]
  GI50: 7.76 µM (inactive)
[41]
  GI50: 4.37 µM (inactive)
[42]
  GI50: 27.3 µM (inactive)
[43]
  GI50: 1.7 µM (inactive)
[44]
  GI50: 14.9 µM (inactive)
[45]
  GI50: 13.9 µM (inactive)
[46]
  GI50: 12.7 µM (inactive)
[47]
  GI50: 14.1 µM (inactive)
[48]
  GI50: 14.1 µM (inactive)
[49]
  GI50: 12 µM (inactive)
[50]
  GI50: 14 µM (inactive)
[51]
  GI50: 11.5 µM (inactive)
[52]
  GI50: 2.98 µM (inactive)
[53]
  GI50: 35.9 µM (inactive)
[54]
  GI50: 5.2 µM (inactive)

## CC(=O)NNc1ncc(C(=O)/C=C/c2ccccc2C)s1
[1]
  GI50: > 100 µM (inactive)
[2]
  GI50: > 100 µM (inactive)
[3]
  GI50: > 100 µM (inactive)
[4]
  GI50: > 100 µM (inactive)
[5]
  GI50: > 100 µM (inactive)
[6]
  GI50: > 100 µM (inactive)
[7]
  GI50: > 100 µM (inactive)
[8]
  GI50: > 100 µM (inactive)
[10]
  GI50: > 100 µM (inactive)
[11]
  GI50: > 100 µM (inactive)
[12]
  GI50: > 100 µM (inactive)
[13]
  GI50: > 100 µM (inactive)
[14]
  GI50: > 100 µM (inactive)
[15]
  GI50: > 100 µM (inactive)
[16]
  GI50: > 100 µM (inactive)
[17]
  GI50: > 100 µM (inactive)
[18]
  GI50: > 100 µM (inactive)
[19]
  GI50: > 100 µM (inactive)
[20]
  GI50: > 100 µM (inactive)
[21]
  GI50: > 100 µM (inactive)
[22]
  GI50: > 100 µM (inactive)
[23]
  GI50: > 100 µM (inactive)
[24]
  GI50: > 100 µM (inactive)
[26]
  GI50: > 100 µM (inactive)
[27]
  GI50: > 100 µM (inactive)
[28]
  GI50: > 100 µM (inactive)
[29]
  GI50: > 100 µM (inactive)
[30]
  GI50: > 100 µM (inactive)
[31]
  GI50: > 100 µM (inactive)
[33]
  GI50: > 100 µM (inactive)
[34]
  GI50: > 100 µM (inactive)
[35]
  GI50: > 100 µM (inactive)
[36]
  GI50: > 100 µM (inactive)
[37]
  GI50: > 100 µM (inactive)
[38]
  GI50: > 100 µM (inactive)
[39]
  GI50: > 100 µM (inactive)
[40]
  GI50: > 100 µM (inactive)
[42]
  GI50: > 100 µM (inactive)
[43]
  GI50: > 100 µM (inactive)
[44]
  GI50: > 100 µM (inactive)
[45]
  GI50: > 100 µM (inactive)
[55]
  GI50: > 100 µM (inactive)
[46]
  GI50: > 100 µM (inactive)
[47]
  GI50: > 100 µM (inactive)
[49]
  GI50: > 100 µM (inactive)
[50]
  GI50: > 100 µM (inactive)
[51]
  GI50: > 100 µM (inactive)
[52]
  GI50: > 100 µM (inactive)
[56]
  GI50: > 100 µM (inactive)
[53]
  GI50: > 100 µM (inactive)

## Oc1cc2cc(O)nc(O)c2c(O)n1
[1]
  GI50: > 100 µM (inactive)
[2]
  GI50: > 100 µM (inactive)
[3]
  GI50: > 100 µM (inactive)
[4]
  GI50: > 100 µM (inactive)
[57]
  GI50: > 100 µM (inactive)
[6]
  GI50: > 100 µM (inactive)
[8]
  GI50: > 100 µM (inactive)
[9]
  GI50: > 100 µM (inactive)
[11]
  GI50: > 100 µM (inactive)
[12]
  GI50: > 100 µM (inactive)
[13]
  GI50: > 100 µM (inactive)
[14]
  GI50: > 100 µM (inactive)
[15]
  GI50: > 100 µM (inactive)
[17]
  GI50: > 100 µM (inactive)
[18]
  GI50: > 100 µM (inactive)
[20]
  GI50: > 100 µM (inactive)
[21]
  GI50: > 100 µM (inactive)
[22]
  GI50: > 100 µM (inactive)
[23]
  GI50: > 100 µM (inactive)
[24]
  GI50: > 100 µM (inactive)
[25]
  GI50: > 100 µM (inactive)
[26]
  GI50: > 100 µM (inactive)
[27]
  GI50: > 100 µM (inactive)
[28]
  GI50: > 100 µM (inactive)
[29]
  GI50: > 100 µM (inactive)
[30]
  GI50: > 100 µM (inactive)
[32]
  GI50: > 100 µM
[34]
  GI50: > 100 µM (inactive)
[35]
  GI50: > 100 µM (inactive)
[36]
  GI50: > 100 µM (inactive)
[37]
  GI50: > 100 µM (inactive)
[38]
  GI50: > 100 µM (inactive)
[39]
  GI50: > 100 µM (inactive)
[40]
  GI50: > 100 µM (inactive)
[41]
  GI50: > 100 µM (inactive)
[42]
  GI50: > 100 µM (inactive)
[43]
  GI50: > 100 µM (inactive)
[44]
  GI50: > 100 µM (inactive)
[45]
  GI50: > 100 µM (inactive)
[55]
  GI50: > 100 µM (inactive)
[58]
  GI50: > 100 µM (inactive)
[46]
  GI50: > 100 µM (inactive)
[47]
  GI50: > 100 µM (inactive)
[48]
  GI50: > 100 µM (inactive)
[50]
  GI50: > 100 µM (inactive)
[51]
  GI50: > 100 µM (inactive)
[59]
  GI50: > 100 µM (inactive)
[52]
  GI50: > 100 µM (inactive)
[56]
  GI50: > 100 µM (inactive)
[53]
  GI50: > 100 µM (inactive)
[54]
  GI50: > 100 µM (inactive)
